Measured values from patent US5500427A, “Cyclic compounds and their use” (Takeda Chemical Industries, Ltd., priority 1992, dated 1996).

Key:
angiotensin II receptor = molecular target: T1, angiotensin II receptor (Bos taurus, UniProt P25104); test: Inhibitory Effect of Binding of Angiotensin-II to Angiotensin II Receptor (radioreceptor assay); details: 125I-angiotensin II, bovine adrenal cortex membrane, room temperature, one hour; for inhibition at 1 µM: 10^-6 M; for inhibition at 0.1 µM: 10^-7 M
T1 construct: An A-II receptor membrane fraction was prepared from bovine adrenal cortex; from tissue; host or cells: bovine adrenal cortex membrane fraction
T1 sequence (P25104 1-359): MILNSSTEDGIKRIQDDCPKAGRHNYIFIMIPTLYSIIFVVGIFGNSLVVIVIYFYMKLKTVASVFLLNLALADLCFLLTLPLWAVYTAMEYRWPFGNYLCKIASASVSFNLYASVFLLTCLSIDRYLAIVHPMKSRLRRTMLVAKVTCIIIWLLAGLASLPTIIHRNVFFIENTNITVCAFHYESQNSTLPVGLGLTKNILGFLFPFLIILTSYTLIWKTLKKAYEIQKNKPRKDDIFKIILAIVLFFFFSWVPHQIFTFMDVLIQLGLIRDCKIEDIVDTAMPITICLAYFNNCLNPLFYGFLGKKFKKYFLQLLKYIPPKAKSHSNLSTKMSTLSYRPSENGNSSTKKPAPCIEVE
Protocol: Inhibitory Effect of Binding of Angiotensin-II to Angiotensin II Receptor
An experiment of inhibition on the binding of angiotensin II (A-II) receptor was performed by modified the method of Douglas et al. [Endocrinology, 102, 685-696 (1978)]. An A-II receptor membrane fraction was prepared from bovine adrenal cortex.
The compound of the present invention (10^-6 M or 10^-7 M) and ^125 I-angiotensin II (^125 I-AII) (2.44 KBq/50 microliter) were added to the receptor membrane fraction, and the mixture was incubated at room temperature for one hour. The receptor-bound and free I-AII were separated through a filter (Whatman GF/B filter), and the radioactivity of ^125 I-AII bound to the receptor was determined.

[1] = system: AII-induced Pressor Response; test: Inhibitory Effect of the Compound of the Present Invention on AII-induced Pressor Response; assay type: in vivo; details: A-II 100 ng/kg i.v., male Jcl:SD rats
Source text: Inhibitory Effect of the Compound of the Present Invention on AII-induced Pressor Response
Jcl:SD rats (9 week old, male) were used. On the previous day of the experiment, rats were applied with cannulation into the femoral artery and vein under anesthesia with pentobarbital Na. These animals were fasted but allowed to access freely to drinking water until the experiment was started. Just on the day of conducting the experiment, the artery cannula was connected with a blood-pressure transducer, and the average blood pressure was recorded by polygraph. Before administration of the drug, the pressor action due to intravenous administration of A-II (100 ng/kg) as the control was determined. The drugs were orally administered, then, at each point of the determination, A-II was administered intravenously, and the pressor action was similarly determined. By comparing the pressor action before and after administration of the drug, the percent inhibition by the drug was evaluated.

Row | Structure (SMILES) | inhibition at 1 µM (angiotensin II receptor) [%] | inhibition at 0.1 µM (angiotensin II receptor) [%] | Pressor Response [p.o.] (percent inhibition of A-II pressor action) ([1]; 0.3 mg/kg p.o.) | Pressor Response [p.o.] (percent inhibition of A-II pressor action) ([1]; 1 mg/kg p.o.)
1 | CCCN(Cc1ccc(-c2ccccc2-c2noc(=O)[nH]2)cc1)c1ncccc1C(=O)O [Example 2] | 52 | 17 | +++ (+++ ≥ 70%) | +++ (+++ ≥ 70%)
2 | CCCN(Cc1ccc(-c2ccccc2-c2nsc(=O)[nH]2)cc1)c1ncccc1C(=O)O [Example 4] | 61 | 20 |  | +++ (+++ ≥ 70%)
3 | CCCCN(Cc1ccc(-c2ccccc2-c2nc(=O)o[nH]2)cc1)c1ncccc1C(=O)O [Example 6, 2-[N-butyl-N-[2'-(2,5-dihydro-5-oxo-1,2,4-oxadiazol-3-yl)biphenyl-4-yl]methylamino]pyridine-3-carboxylic acid] | 55 | 16 |  | +++ (+++ ≥ 70%)
